Laboratory results reported in patent US10124004B2, “Pyrido[3,4-d]pyrimidine derivative and pharmaceutically acceptable salt thereof” (Teijin Pharma Limited, priority 2015, dated 2018).
Like-named read-outs stand apart in the source and are kept apart here.

How the values were obtained:
[1] = biological target: T1, CDK4/cyclin D3 (Homo sapiens, UniProt P11802); test: Human CDK4/cyclin D3 inhibitory activity (QS S Assist CDK4/Cyclin D3_FP Kit, IMAP fluorescence polarization); format: biochemical
T1 construct: purchased Carna Biosciences, Inc. QS S Assist CDK4/Cyclin D3_FP Kit
How it was run: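 IMAP fluorescence-polarization kinase assay with kit ATP/substrate/metal mix and 12.5 to 25 ng/well enzyme in 20 mM HEPES pH 7.4, 0.01% Tween20, 2 mM DTT. Reaction ran 45 min at room temperature, then binding reagent was added for 30 min in the dark. IC50 was taken from dose-response fits of percent inhibition.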

[2] = biological target: T2, CDK2/cyclin A2 (Homo sapiens, UniProt P24941); test: Human CDK2/cyclin A2 inhibitory activity (QS S Assist CDK2/Cyclin A2_FP Kit, IMAP fluorescence polarization); format: biochemical
T2 construct: purchased Carna Biosciences, Inc. QS S Assist CDK2/Cyclin A2_FP Kit
How it was run: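 Kinase activity read as fluorescence polarization (485/535 nm) after phosphorylated fluorescent substrate binds IMAP reagent (30 min, RT, dark). Enzyme (2.5 ng/well) reacted 60 min at RT with ATP/substrate/metal in HEPES pH 7.4 buffer with Tween 20 and DTT; no-enzyme wells define 0% activity; IC50 by curve fit.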

[3] = Human CDK4/cyclin D3 inhibitory activity, read-out: CDK4 Activity symbol
[4] = Human CDK2/cyclin A2 inhibitory activity, read-out: CDK2 Activity symbol
[5] = 50% inhibitory concentration against CDK4/cyclin D3, given as class symbol
[6] = 50% inhibitory concentration against CDK2/cyclin A2, given as class symbol

T1 sequence (P11802 whole entry): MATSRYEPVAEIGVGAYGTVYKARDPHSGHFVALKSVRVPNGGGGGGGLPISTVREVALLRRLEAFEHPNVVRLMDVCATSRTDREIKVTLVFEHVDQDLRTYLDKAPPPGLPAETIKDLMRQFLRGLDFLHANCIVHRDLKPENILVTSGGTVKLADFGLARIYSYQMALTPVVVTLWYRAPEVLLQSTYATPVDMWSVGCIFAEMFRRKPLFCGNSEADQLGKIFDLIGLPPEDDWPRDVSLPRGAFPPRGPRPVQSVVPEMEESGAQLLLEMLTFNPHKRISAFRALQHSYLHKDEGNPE
T1 sequence (P30281 whole entry partner): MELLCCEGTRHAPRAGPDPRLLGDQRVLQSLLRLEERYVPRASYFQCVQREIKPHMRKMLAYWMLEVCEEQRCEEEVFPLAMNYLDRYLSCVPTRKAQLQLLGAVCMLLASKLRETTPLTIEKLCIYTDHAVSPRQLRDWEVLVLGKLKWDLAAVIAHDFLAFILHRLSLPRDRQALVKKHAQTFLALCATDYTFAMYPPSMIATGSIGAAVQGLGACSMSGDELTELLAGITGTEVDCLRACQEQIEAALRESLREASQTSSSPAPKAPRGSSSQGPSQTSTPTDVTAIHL

| SMILES | IC50 [1, 3] [nM] | IC50 [2, 4] [nM] | IC50 [1, 5] [nM] | IC50 [2, 6] [nM] |
| --- | --- | --- | --- | --- |
| CC(C)Nc1nc(C(F)F)cc2cnc(Nc3ccc(NC(=O)C(N)=O)cn3)nc12 [Compound 97] | 10 to 100 | ≥ 100 | – | – |
| C[C@@H](O)c1cc2cnc(Nc3ccc(CN4CCCC(O)C4)cn3)nc2c(N[C@H]2CCCOC2)n1 (stereo partly shown) [Compound 1128] | – | – | < 10 | ≥ 100 |
| CC(C)Nc1nc([C@@H](C)O)cc2cnc(Nc3ccc(N4CCN(C[C@H](C)O)CCC4=O)cn3)nc12 [Compound 720] | – | – | < 10 | ≥ 100 |
| CC(C)Nc1nc([C@@H](C)O)cc2cnc(Nc3ccc(N4CC5(CNC5)C4)nn3)nc12 [Compound 562] | < 10 | ≥ 100 | – | – |
| CO[C@H](C)c1cc2cnc(Nc3ccc(CN4CCN(CCO)CC4)cn3)nc2c(NCC2CCOCC2)n1 [Compound 918] | – | – | < 10 | ≥ 100 |
| Cc1nnc(NCc2ccc(Nc3ncc4cc(C(F)F)nc(NC(C)C)c4n3)nc2)[nH]1 [Compound 158] | 10 to 100 | ≥ 100 | – | – |
| CC(C)Nc1nc(C(C)O)cc2cnc(Nc3ccc(N4CCC(O)C5(CC5)C4)nn3)nc12 (single isomer, unassigned) [Compound 724] | – | – | < 10 | ≥ 100 |
| CC(C)Nc1nc(C(F)F)cc2cnc(Nc3ccc(CC(=O)O)cn3)nc12 [Compound 133] | 10 to 100 | ≥ 100 | – | – |
| CC(C)Nc1nc([C@H](C)F)cc2cnc(Nc3ccc(N4CCNCC4)nn3)nc12 [Compound 698] | – | – | < 10 | ≥ 100 |
| C[C@@H](O)c1cc2cnc(Nc3ccc(CN4CCC(CO)CC4)cn3)nc2c(NC2CCC2)n1 [Compound 1150] | – | – | < 10 | ≥ 100 |
| CC(C)Nc1nc(C(F)F)cc2cnc(Nc3ccc(CN4CCC(C(=O)O)C4)cn3)nc12 (stereo not shown) [Compound 190] | < 10 | 10 to 100 | – | – |
| CN(C)CCN1CCc2nc(Nc3ncc4cc(C5(C)COC5)nc(N[C@H]5CC[C@H](O)CC5)c4n3)ccc2C1 [Compound 1182] | – | – | < 10 | ≥ 100 |
| CC(C)Nc1nc(C(F)F)cc2cnc(Nc3ccc(CN(C[C@@H]4CCCO4)S(C)(=O)=O)cn3)nc12 [Compound 149] | 10 to 100 | ≥ 100 | – | – |
| Cc1ncn(Cc2ccc(Nc3ncc4cc([C@@H](C)O)nc(NC(C)C)c4n3)nc2)c1C(=O)O [Compound 965] | – | – | 10 to 100 | ≥ 100 |
| CC(C)Nc1nc([C@@H](C)O)cc2cnc(Nc3ccc(CC4CCN(CCO)CC4)cn3)nc12 [Compound 951] | – | – | < 10 | ≥ 100 |
| C[C@@H](O)c1cc2cnc(Nc3ccc(N4CCNCC4)nn3)nc2c(NC2(C)CC2)n1 [Compound 1175] | – | – | < 10 | ≥ 100 |
| CO[C@H](C)c1cc2cnc(Nc3ccc(N4CCCNCC4=O)cn3)nc2c(NC(C)C)n1 [Compound 492] | < 10 | 10 to 100 | – | – |
| C[C@H]1CC[C@H](Nc2nc(C(F)F)cc3cnc(Nc4ccc(CN5CCC(C(=O)O)CC5)cn4)nc23)CC1 [Compound 839] | – | – | < 10 | ≥ 100 |
| c1cc(N2CCNCC2)nnc1Nc1ncc2cc(C3CCOC3)nc(N[C@H]3CCCOC3)c2n1 (stereo partly shown) [Compound 878] | – | – | < 10 | ≥ 100 |
| CC(C)Nc1nc(C(C)O)cc2cnc(Nc3ccc(OC4CCNCC4F)cn3)nc12 (stereo not shown) [Compound 708] | – | – | < 10 | ≥ 100 |
| CC1(c2cc3cnc(Nc4ccc5c(n4)CCN(CCO)C5)nc3c(N[C@H]3CCCOC3)n2)COC1 [Compound 1129] | – | – | < 10 | ≥ 100 |
| CO[C@H](C)c1cc2cnc(Nc3ccc(N4CCNCC4)c(C)n3)nc2c(NC(C)C)n1 [Compound 925] | – | – | < 10 | ≥ 100 |
| CCCNc1nc(C(F)F)cc2cnc(Nc3ccc(CN4CCC(C(=O)O)CC4)cn3)nc12 [Compound 1097] | – | – | 10 to 100 | ≥ 100 |
| C[C@@H](O)c1cc2cnc(Nc3ccc(N4CCNCC4=O)cn3)nc2c(N[C@H]2CCOC2)n1 [Compound 349] | 10 to 100 | ≥ 100 | – | – |
| CNCCOc1ccc(Nc2ncc3cc([C@@H](C)O)nc(N(C)[C@H]4CCCOC4)c3n2)nc1 [Compound 868] | – | – | < 10 | ≥ 100 |

| SMILES | IC50 [1, 3] [nM] | IC50 [2, 4] [nM] | IC50 [1, 5] [nM] | IC50 [2, 6] [nM] |
| --- | --- | --- | --- | --- |
| CC(C)Nc1nc([C@@H](C)O)cc2cnc(Nc3ccc(N4CCOCC4=O)cn3)nc12 [Compound 804] | – | – | < 10 | ≥ 100 |
| CC(C)Nc1nc([C@@H](C)O)cc2cnc(Nc3ccc(N4CCn5ccnc5C4)nn3)nc12 [Compound 898] | – | – | < 10 | ≥ 100 |
| O=C(CO)N1CCc2nc(Nc3ncc4cc(C5CCOC5)nc(N[C@H]5CCCOC5)c4n3)ccc2C1 (stereo partly shown) [Compound 1114] | – | – | < 10 | ≥ 100 |
| C[C@@H](O)c1cc2cnc(Nc3ccc(N4CCNCC4)nn3)nc2c(NC2CCS(=O)(=O)CC2)n1 [Compound 322] | 10 to 100 | ≥ 100 | – | – |
| CC(C)Nc1nc([C@@H](C)O)cc2cnc(Nc3ccc(N4CCN(C(=O)C5CCCO5)CC4)nn3)nc12 (stereo partly shown) [Compound 1183] | – | – | < 10 | ≥ 100 |
| O=C1CNCCN1c1ccc(Nc2ncc3c(Cl)c(C(F)F)nc(NCC4CCOCC4)c3n2)nc1 [Compound 840] | – | – | ≥ 100 | ≥ 100 |
| C[C@@H](O)c1cc2cnc(Nc3ccc(CN4CCNCC4)cn3)nc2c(NC2CCCC2C(=O)O)n1 (stereo partly shown) [Compound 324] | ≥ 100 | ≥ 100 | – | – |
| CCNc1nc([C@@H](C)O)cc2cnc(Nc3ccc(N4CCNCC4)cn3)nc12 [Compound 1001] | – | – | < 10 | ≥ 100 |
| CO[C@H](C)c1cc2cnc(Nc3ccc4c(n3)CCN(C(=O)CO)C4)nc2c(N[C@H]2CCCOC2)n1 [Compound 1113] | – | – | 10 to 100 | ≥ 100 |
| C[C@@H](O)c1cc2cnc(Nc3ccc(CN4CCNCC4)cn3)nc2c(NC2CCS(=O)(=O)CC2)n1 [Compound 314] | < 10 | ≥ 100 | – | – |
| CC(C)Nc1nc([C@@H](C)O)cc2cnc(Nc3ccc(N4CCC(O)C5(CC5)C4)nn3)nc12 (stereo partly shown) [Compound 723] | – | – | < 10 | ≥ 100 |
| CC(C)Nc1nc(C(C)O)cc2cnc(Nc3ccc(C4CCNCC4)cn3)nc12 (stereo not shown) [Compound 78] | < 10 | ≥ 100 | – | – |
| O[C@H]1CC[C@H](Nc2nc(C(F)F)cc3cnc(Nc4ccc(N5CCNCC5)nn4)nc23)CC1 [Compound 387] | < 10 | 10 to 100 | – | – |
| CC(=O)c1cc2cnc(Nc3ccc(N4CCNCC4)cn3)nc2c(NC2CCOCC2)n1 [Compound 56] | < 10 | ≥ 100 | – | – |
| CN(C)CCOc1ccc(Nc2ncc3cc(C(F)F)nc(NC4CCCOC4)c3n2)nc1 (stereo not shown) [Compound 366] | < 10 | ≥ 100 | – | – |
| CC(C)Nc1nc(C(F)F)cc2cnc(Nc3ccc(-n4cnnn4)cn3)nc12 [Compound 211] | 10 to 100 | 10 to 100 | – | – |
| CC(=O)c1cc2cnc(Nc3ccc(N4CCNCC4=O)cn3)nc2c(NC(C)C)n1 [Compound 743] | – | – | < 10 | ≥ 100 |
| CC(C)Nc1nc(C2CCCO2)cc2cnc(Nc3ccc(N4CCNCC4)cn3)nc12 (stereo not shown) [Compound 993] | – | – | < 10 | ≥ 100 |
| CC(C)Nc1nc(C2CCOC2)cc2cnc(Nc3ccc(N4CCNCC4)nn3)nc12 (stereo not shown) [Compound 877] | – | – | < 10 | ≥ 100 |
| CC(C)Nc1nc(C(C)O)cc2cnc(Nc3ccc(N4CCNCC4C(F)(F)F)cn3)nc12 (single isomer, unassigned) [Compound 775] | – | – | < 10 | ≥ 100 |
| CNCCOc1ccc(Nc2ncc3cc([C@@H](C)OC)nc(NC(C)C)c3n2)nc1 [Compound 288] | < 10 | ≥ 100 | – | – |
| CC(C)Nc1nc(C(F)F)cc2cnc(Nc3ccc(N4CCN(C)C(=O)C4)cn3)nc12 [Compound 84] | < 10 | 10 to 100 | – | – |
| C[C@@H](O)c1cc2cnc(Nc3ccc(N4CCNCC4=O)cn3)nc2c(NC2(C)CCCOC2)n1 (stereo partly shown) [Compound 903] | – | – | < 10 | 10 to 100 |
| CC(C)Nc1nc(C2CCOC2)cc2cnc(Nc3ccc(N4CCNCC4)cn3)nc12 (stereo not shown) [Compound 1007] | – | – | < 10 | ≥ 100 |
| C[C@@H](O)c1cc2cnc(Nc3ccc(CN4CCC(O)CC4)cn3)nc2c(NC2CCC2)n1 [Compound 1063] | – | – | < 10 | ≥ 100 |
